# Reference: patent US20260232644A1, “Compositions Comprising an Inhibitor of Galectin-3” (University of Liverpool, priority 2023, published 2026)
# Where a name gives a salt, the structure may show the parent alone.
# Tests used:
# [1] = system: human melanoma ACA19 cells; test: ACA19 cell invasion through HUVECs (transwell); type: cell-based; conditions: compound 20 μM, transwells
# Method: HUVECs were plated at a density of 1.5×10^4 cells in 8 μm pore transwells in 24-well plate and cultured for three days to allow formation of tight monolayer. The integrity of HUVEC monolayer was confirmed by measuring TEER and only monolayers with TEER reading>800 Ω/cm^2 were used for the invasion assay. AGA19+ or SW620 cell suspension (5×10^5 cells/ml in DMEM) was introduced with 5 μl/ml fluorescent cell labelling solution DiL for 30 min at 37° C. The fluorescence labelled cells were washed twice with PBS and resuspended into 1×10^5 cells/ml in DMEM. The cancer cell suspension was then incubated with or without galectin-3 (2 μg/ml) or various concentrations of the compound inhibitors or lactose at 37° C. for 20 min before introduction to the HUVEC monolayers for 24 hr at 37° C. The cells at the upper side of the trans-well inserts were gently removed with cotton swabs. The cells migrated to the bottom side of the transwells were fixed with 2% paraformaldehyde for 10 min. The trans-well membrane was removed and placed on glass slides. After addition of fluorescence mounting medium containing DAPI, the fluorescence labelled cells on the membrane were quantified under a fluorescence microscope.
# Galectin-4 = target: T1, Galectin-4 (Homo sapiens, UniProt P56470); test: Galectin-4 binding to asialofetuin ELISA; conditions: Gal-4 5 μg/ml, ASF 20 μg/ml
# T1 construct: made in house; host or cells: E. coli
# T1 sequence (P56470 1-323): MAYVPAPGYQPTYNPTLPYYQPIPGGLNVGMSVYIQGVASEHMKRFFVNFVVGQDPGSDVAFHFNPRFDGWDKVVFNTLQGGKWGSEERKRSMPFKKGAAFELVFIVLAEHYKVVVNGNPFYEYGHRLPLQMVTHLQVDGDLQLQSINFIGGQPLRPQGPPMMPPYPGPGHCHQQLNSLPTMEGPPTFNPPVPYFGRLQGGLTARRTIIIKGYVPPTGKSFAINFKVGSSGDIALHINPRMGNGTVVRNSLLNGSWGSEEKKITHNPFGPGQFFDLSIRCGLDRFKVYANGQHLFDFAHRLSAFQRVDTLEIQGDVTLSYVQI
# Method: Effect of the inhibitors on galectin binding to its ligand asialo fetuin (ASF) was measured by galectin ELISA. Nanty-six well plates were coated overnight with 20 μg/ml ASF in coating buffer (15 mM Na2CO3 17 mM NaHCO3 pH 9.6.). The wells were washed twice with PBS and incubated with blocking buffer (1% BSA in PBS) for 1 hr. The supernatants were removed and replaced with 5 μg/ml recombinant human galectin without or with different concentrations of the compound inhibitors or lactose in blocking buffer for 1 hr at room temperature. The wells were washed and incubated with 1 μg/ml anti-galectin antibody for 2 hr. Following addition of HRP-conjugated secondary antibody for 1 hr, FAST OPD development solution was added for 15-20 minutes. The reaction was terminated by addition of 4M sulphuric acid. The plates were read at 492 nm (reference wavelength 595 nm) by a microplate reader.
compound,measurement,setting,value
"NC1CCN(c2nc3c(cc2F)c(=O)c(C(=O)O)cn3-c2ccc(F)cc2F)C1 (centres unmarked) [Formula X, Tosufloxacin tosylate]",Inhibition of Galectin-3-mediated invasion of ACA19 cells through HUVECs,[1],significant inhibition
same,Effect on Galectin-4 binding to asialofetuin,Galectin-4,does not affect binding
